According to paper PMC12811501, “A plant-derived antimicrobial peptide with multiple mechanisms of action exhibiting antibacterial and antibiofilm activities comparable to or superior to polymyxin B” (Current Research in Microbial Sciences, 2025):
In brackets after ≈: the same amount, converted by molar mass. Like-named read-outs stand apart in the source and are kept apart here. Residues, ends and D or L forms follow the SMILES beside them.

Key:
[1] = tested on: human keratinocyte HaCaT cells; settings: cited from earlier work
[2] = tested on: Acinetobacter baumannii pre-formed biofilm; test: microbe, parasite or virus in culture; format: cell-based; settings: for MBC: 24 h
Experimental: For the biofilm eradication assay the difference was at the beginning of the experiments when bacteria were pre-cultured for 24 h or 72 h in MHB with a starting OD600 = 0.01. Then bacterial suspensions were removed from the wells followed by washing three times with 200 µl of 1/2 MHB. Subsequently fresh 1/10 MHB was added to the wells containing the respective dilutions of NCR169C17–38, meropenem or polymixin B and the treatment lasted either 3 h or 24 h. Experiments were done in three biological replicates.
To assess whether the NCR169C17–38 peptide or the tested antibiotics could eradicate pre-formed biofilms, A. baumannii was first cultured in MHB for 24 h, then treated with NCR169C17–38, meropenem or polymyxin B for either 3 h or 24 h, using the same concentration range as in the previous experiment. Both bacterial survival within the pre-formed biofilm and the amount of residual biofilm were assessed. […] In contrast, neither of the two antibiotics completely eliminated the bacteria within the tested concentration range. […] This 24 h of treatment was repeated on mature biofilm (pre-formed for 72 h) and the results were very similar (Supplementary Fig. 1.).

[3] = tested on: HindIII-digested lambda phage DNA; test: Real-time DNA binding by SYBR Gold fluorescence; settings: 100 ng DNA, 10 µM peptide added at 0 or 14 min, room temperature
Experimental: In addition, DNA-binding kinetics were monitored in real time using a Hidex Sense plate reader at room temperature in three independent experiments. Reaction mixtures contained 100 ng of HindIII-digested lambda phage DNA in 1 × SYBR Gold (Thermo Scientific), either without peptide or with 10 µM of NCR169C17–38 (2.74041 µg), NCR169 (4.56545 µg), NCR169_16–27 (1.56597 µg), or NCR169_17–27 (1.40279 µg). Peptides were added either at the start (0 min) or at 14 min. Fluorescence from DNA-bound SYBR Gold was measured every 3 min (excitation 490 nm, emission 535 nm). At 27 min, proteinase K (1 mg/ml; 100 µg final) was added to peptide-treated samples to assess the effect on peptide–DNA binding. Experiments were done in three biological replicates.
The DNA-binding kinetics were quantified using SYBR Gold fluorescence (Fig. 3.D). […] To test if peptide removal would recover the DNA–SYBR Gold fluorescence to control values, Proteinase K was added at 27 min to all reactions. […] In contrast, fluorescence values in the NCR169 samples remained unchanged, while those of NCR169C17–38 or NCR169_17–27 increased slightly and gradually to the same limited extent.

[4] = tested on: circular plasmid DNA (pDEST-GBKT7); test: Gel retardation assay; format: binding; settings: 250 ng circular plasmid DNA, peptide 50 µM to 0.8 µM
Experimental: The DNA- and RNA-binding abilities of NCR169C17–38, its parental peptide NCR169, and two shorter derivatives (NCR169_16–27 and NCR169_17–27) were initially evaluated using a gel retardation assay. In this setup, 100 ng of either E. coli genomic DNA or total RNA was incubated with 10 µM or 100 µM of each peptide for 30 min at 37 °C. Reaction mixtures, along with untreated controls, were then subjected to agarose gel electrophoresis, and the resulting nucleic acid migration patterns were examined for changes indicative of peptide binding. The interaction of NCR169C17–38 with circular plasmid DNA (pDEST-GBKT7) was also characterized using peptide concentrations ranging from 50 µM to 0.8 µM, prepared by 2-fold serial dilution. Experiments were done in three biological replicates.
To explore whether the NCR169C17–38 peptide has secondary intracellular targets of the bacterial cells beyond the primary membrane disruption, we tested its possible interaction with nucleic acids in gel retardation assays. A pilot experiment indicated strong DNA-binding capacity, prompting us to include the parental NCR169 peptide and the shorter derivatives NCR169_16–27 and NCR169_17–27 for comparison (Fig. 3.). […] Similar results were obtained with total E. coli RNA (Fig. 3.B). […]

Acinetobacter baumannii = test: microbe, parasite or virus in culture; format: cell-based
Experimental: For the biofilm inhibition assay the antimicrobial activity test was done in 1/10 MHB using A. baumannii treated with the respective dilutions of NCR169C17–38, meropenem or polymixin B for 24 h. After taking the 5 μl samples at the end of the treatment and placed on LB agar to detect bacterial growth, the rest of the grown bacterial suspensions were discarded from the plate and the remaining biofilm on the walls of the plate was then washed three times with sterile water and stained using 1 % Crystal Violet (CV) for 15 min to visualize the produced biofilm. The non-adherent CV dye was then removed by washing with water three times. The plate was left for complete drying, then the biofilm-bound CV dye was dissolved in 200 µl of 30 % acetic-acid with shaking over 15 min. The absorbance was measured at OD550 using a HIDEX Plate Reader (Hidex Sense Microplate Reader with Plate Reader Software version 5064, Hidex, Finland). All measurements were repeated three times.
We examined the capacity of NCR169C17–38 to inhibit biofilm formation by Acinetobacter baumannii, a pathogen well known for its robust biofilm production and high level of antibiotic resistance. […] Additionally, at the end of the experiment we determined the quantity of the biofilm and thereby evaluated their ability to inhibit biofilm formation during culturing the bacteria in the presence of different concentrations of the agents (Fig. 1.A). We tested concentrations of NCR169C17–38 ranging from 25 μM to 0.4 μM, meropenem from 100 μM to 1.6 μM and polymyxin B from 3.1 μM to 0.05 μM.

E. coli = format: cell-based, Escherichia coli; settings: 8 h
Experimental: For serum stability test human blood was purchased from the Regional Blood Centre in Szeged (the use of human blood has been authorized by the Regional Hungarian Ethics Committee and approved by the Ethics Review Sector of DG RTD (European Commission) in connection with EK’s ERC AdG SymBiotics). The cells from 10 ml of EDTA-blood were centrifuged at 1500 × g for 1 min and washed several times in TBS buffer (10 mM Tris, pH: 7.2, 150 mM NaCl) until the supernatant, representing the serum, became colorless. The NCR169C17–38 peptide was added to the serum at 1:1 ratio and incubated at room temperature for 8 h. Subsequently, serial 2-fold dilutions of the peptide were prepared in PPB, with concentrations ranging from 100 to 0.2 µM and antimicrobial assay was done to determine the MBC values. Experiments were done in three biological replicates.

CC[C@H](C)[C@H](NC(=O)[C@H](CCCCN)NC(=O)[C@H](Cc1ccccc1)NC(=O)[C@H](CC(C)C)NC(=O)[C@@H]1CCCN1C(=O)[C@H](CCCCN)NC(=O)[C@H](CCCCN)NC(=O)[C@H](CO)NC(=O)[C@@H](N)CCCCN)C(=O)N[C@@H](Cc1c[nH]c2ccccc12)C(=O)N[C@@H](CCCCN)C(=O)N[C@@H](CS)C(=O)N[C@H](C(=O)N[C@@H](CCC(=O)O)C(=O)N[C@@H](CC(N)=O)C(=O)N[C@H](C(=O)N[C@@H](CS)C(=O)N[C@H](C(=O)N[C@@H](CC(C)C)C(=O)N[C@@H](Cc1c[nH]c2ccccc12)C(=O)N[C@@H](Cc1ccc(O)cc1)C(=O)N[C@@H](CCCCN)C(N)=O)C(C)C)C(C)C)C(C)C [NCR169C17–38] (H-KSKKPLFKIWKCVENVCVLWYK-NH2; N-terminus assumed)
cytotoxicity [1]: non-cytotoxic
degradation of pre-formed biofilm ([2]; A. baumannii biofilm pre-formed 24 h, 24 h of treatment, Crystal Violet OD550): successful even at sub-MBC level
MBC ([2]; pre-formed biofilm, read-out: MBC, Eradication test after 3 h): 6.3 µM (≈ 17.3 µg/mL)
MBC ([2]; pre-formed biofilm, read-out: MBC, Eradication test after 24 h): 12.5 µM (≈ 34.2 µg/mL)
concentration degrading the mature biofilm (sub-MBC level) ([2]; pre-formed biofilm, 72 h): 3.1 µM
extent of SYBR Gold fluorescence signal reduction (hierarchy) [3]: NCR169C17–38 > NCR169 > NCR169_16–27 > NCR169_17–27
plasmid DNA binding, gel retardation [4]: complete retention of DNA in the well at higher concentrations
MBC (Acinetobacter baumannii; 24 h, read-out: MBC, Inhibition test after 24 h): 6.3 µM (≈ 17.3 µg/mL)
inhibition of biofilm formation (Crystal Violet, OD550) (Acinetobacter baumannii; A. baumannii, 24 h treatment, NCR169C17–38 25-0.4 μM, meropenem 100-1.6 μM, polymyxin B 3.1-0.05 μM): remaining effective even at lower doses
MBC after pre-incubation in human serum (E. coli): 3.1 µM (≈ 8.49 µg/mL)
